Measured values as given in patent publication US20240180948A1, “4'-HALOGEN CONTAINING NUCLEOTIDE AND NUCLEOSIDE THERAPEUTIC COMPOSITIONS AND USES RELATED THERETO” (priority 2018, published 2024).

Key:
[1] = Liver microsome stability, rat; conditions: male, Sprague-Dawley, liver microsomes, pH 7.4
[2] = Mouse plasma PK, single dose PO or IP; conditions: female, ICR (CD-1)
[3] = Liver microsome stability, human; conditions: both, liver microsomes, pH 7.4
[4] = Plasma stability, human; conditions: both
[5] = Plasma stability, rat; conditions: male, Sprague-Dawley
[6] = Liver microsome stability, mouse; conditions: male, CD-1, mouse, liver microsomes, pH 7.4
[7] = Plasma stability, mouse; conditions: male, CD-1, mouse

O=c1ccn([C@@H]2O[C@](F)(CO)[C@@H](O)[C@H]2O)c(=O)[nH]1 [EIDD-02749, 1-[(2R,3R,4S,5S)-5-fluoro-3,4-dihydroxy-5-(hydroxymethyl)tetrahydrofuran-2-yl]pyrimidine-2,4-dione] gave a half-life at 1 μM [1] of 25 min, an AUC(0-inf) ([2]; ip, 10 mg/kg) of 19.6 µM·h and a half-life ([2]; ip, 10 mg/kg) of 378 min. It also gave an AUC(0-inf) ([2]; po, 50 mg/kg) of 232 µM·h, a bioavailability ([2]; po, 50 mg/kg) of 236% and a half-life ([2]; po, 50 mg/kg) of 498 min. For the same molecule, the AUC(0-inf) ([2]; po, 150 mg/kg) was 392 µM·h, the bioavailability ([2]; po, 150 mg/kg) was 133% and the half-life ([2]; po, 150 mg/kg) was 510 min. For the same molecule, the AUC(0-inf) ([2]; po, 500 mg/kg) was 755 µM·h, the bioavailability ([2]; po, 500 mg/kg) was 77% and the half-life ([2]; po, 500 mg/kg) was 774 min. The half-life at 1 μM [3] was 22 min, the half-life at 1 μM [4] was 26 min and the half-life at 1 μM [5] was 22 min. It also gave a half-life at 1 μM [6] of 27 min and a half-life at 1 μM [7] of 37 min.
For CC(C)C(=O)OC[C@@]1(F)O[C@@H](n2ccc(=O)[nH]c2=O)[C@H](OC(=O)C(C)C)[C@@H]1OC(=O)C(C)C [EIDD-2954, [(2S,3S,4R,5R)-5-(2,4-dioxopyrimidin-1-yl)-2-fluoro-3,4-bis(2-methylpropanoyloxy)tetrahydrofuran-2-yl]methyl 2-methylpropanoate], the half-life at 1 μM [1] was less than 1 min, the half-life at 1 μM [3] was less than 1 min and the half-life at 1 μM [4] was 2 min. It also gave a half-life at 1 μM [5] of 1 min, a half-life at 1 μM [6] of less than 1 min and a half-life at 1 μM [7] of 1 min.
CC(C)C(=O)OC[C@@]1(F)OC(n2ccc(=O)[nH]c2=O)C(O)[C@@H]1O (stereo partly drawn) [EIDD-2947, [(2S,3S)-5-(2,4-dioxopyrimidin-1-yl)-2-fluoro-3,4-dihydroxy-tetrahydrofuran-2-yl]methyl 2-methylpropanoate] gave a half-life at 1 μM [1] of 10 min, a half-life at 1 μM [4] of 2 min and a half-life at 1 μM [5] of 9 min. The half-life at 1 μM [6] was 1 min and the half-life at 1 μM [7] was 1 min.
With CC(C)[C@H](N)C(=O)OC[C@@]1(F)O[C@@H](n2ccc(=O)[nH]c2=O)[C@H](O)[C@@H]1O.Cl [EIDD-2971, [(1S)-1-[[(2S,3S,4R,5R)-5-(2,4-dioxopyrimidin-1-yl)-2-fluoro-3,4-dihydroxy-tetrahydrofuran-2-yl]methoxycarbonyl]-2-methyl-propyl]ammonium chloride] the half-life at 1 μM [1] was 33 min, the half-life at 1 μM [3] was 38 min and the half-life at 1 μM [4] was 81 min. It also gave a half-life at 1 μM [5] of 50 min, a half-life at 1 μM [6] of 11 min and a half-life at 1 μM [7] of 59 min.
